Assay results as given in paper PMC10999543, “Identification of kinase modulators as host-directed therapeutics against intracellular methicillin-resistant Staphylococcus aureus” (Frontiers in Cellular and Infection Microbiology, 2024).
Like-named read-outs stand apart in the source and are kept apart here.

What was measured:
HeLa cells = assay: Compound screen by flow cytometry: HeLa cell count as surrogate readout of cell viability (z-scoreHeLa); assay type: cell-based, human; settings: for cell count rep 1 / z-scoreHeLa rep 1: replicate 1; for cell count rep 1 / cell count rep 2 / cell count rep 3 / z-scoreHeLa mean / z-scoreHeLa rep 1 / z-scoreHeLa rep 2 / z-scoreHeLa rep 3: HeLa cell count; for cell count rep 2 / z-scoreHeLa rep 2: replicate 2; for cell count rep 3 / z-scoreHeLa rep 3: replicate 3; for z-scoreHeLa mean: mean of 3 replicates; as to all read-outs here: test concentration or dose not given here
Outline: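 The viability surrogate was the count of fixed HeLa cells by flow cytometry, converted to z-scores against DMSO controls with values deviating two-fold excluded. Before counting, cells had been infected with MRSA for 1 h and cleared of extracellular bacteria with gentamicin. They were then exposed overnight to kinase inhibitors in triplicate.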

intracellular MRSA = assay type: cell-based, Staphylococcus aureus; settings: for %GFP+ rep 1 / z-scoreMRSA+ rep 1: replicate 1; for %GFP+ rep 1 / %GFP+ rep 2 / %GFP+ rep 3 / z-scoreMRSA+ mean / z-scoreMRSA+ rep 1 / z-scoreMRSA+ rep 2 / z-scoreMRSA+ rep 3: MRSA-infected HeLa cells; for %GFP+ rep 2 / z-scoreMRSA+ rep 2: replicate 2; for %GFP+ rep 3 / z-scoreMRSA+ rep 3: replicate 3; for z-scoreMRSA+ mean: mean of 3 replicates
Outline: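 Values are z-scores: GFP-positive HeLa percentage and event count per well against plate statistics, minus the mean DMSO z-score. Wells deviating two-fold from controls were left out of plate means. Infection was at a mean MOI of 6.8, with an overnight compound exposure.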

[1] = Yes/No: effect without cell death
[2] = PKIS compound screen, Yes/No call on z-scoreHeLa
[3] = PKIS compound screen, Yes/No call (effect without cell death)
[4] = PKIS compound screen, Yes/No call on z-scoreMRSA+
For %GFP+ rep 1 in this document: test concentration or dose not given here.
For %GFP+ rep 2 in this document: test concentration or dose not given here.
For %GFP+ rep 3 in this document: test concentration or dose not given here.
For effect in this document: test concentration or dose not given here.
For z-scoreMRSA+ mean in this document: test concentration or dose not given here.
For z-scoreMRSA+ rep 1 in this document: test concentration or dose not given here.
For z-scoreMRSA+ rep 2 in this document: test concentration or dose not given here.
For z-scoreMRSA+ rep 3 in this document: test concentration or dose not given here.

Structure (SMILES)	cell death (HeLa cells; Yes/No call from z-scoreHeLa)	z-scoreHeLa mean (HeLa cells; compound screen)	z-scoreHeLa rep 1 (HeLa cells; compound screen)	z-scoreHeLa rep 2 (HeLa cells; compound screen)	z-scoreHeLa rep 3 (HeLa cells; compound screen)	effect (intracellular MRSA; Yes/No call from z-scoreMRSA+)	hit (intracellular MRSA; [1])	z-scoreMRSA+ mean (intracellular MRSA; compound screen)	z-scoreMRSA+ rep 1 (intracellular MRSA; compound screen)	z-scoreMRSA+ rep 2 (intracellular MRSA; compound screen)	z-scoreMRSA+ rep 3 (intracellular MRSA; compound screen)	cell count rep 1 (HeLa cells; PKIS compound screen raw data)	cell count rep 2 (HeLa cells; PKIS compound screen raw data)	cell count rep 3 (HeLa cells; PKIS compound screen raw data)	z-scoreHeLa mean (HeLa cells; PKIS compound screen)	z-scoreHeLa rep 1 (HeLa cells; PKIS compound screen)	z-scoreHeLa rep 2 (HeLa cells; PKIS compound screen)	%GFP+ rep 1 (intracellular MRSA; PKIS compound screen raw data) [%]	%GFP+ rep 2 (intracellular MRSA; PKIS compound screen raw data) [%]	%GFP+ rep 3 (intracellular MRSA; PKIS compound screen raw data) [%]	also measured
COc1cc(Nc2ncc(-c3ccccc3)o2)cc(OC)c1OC [GW627512B]	No	-1.42	-2.18	-0.96	-1.10	No	No	-0.71	-0.70	-0.47	-0.97										cell count rep 1 (HeLa cells; PKIS compounds raw data): 2360; cell count rep 2 (HeLa cells; PKIS compounds raw data): 2993; cell count rep 3 (HeLa cells; PKIS compounds raw data): 4653; %GFP+ rep 1 (intracellular MRSA; PKIS compounds raw data): 11.0%; %GFP+ rep 2 (intracellular MRSA; PKIS compounds raw data): 12.1%; %GFP+ rep 3 (intracellular MRSA; PKIS compounds raw data): 12.6%
COc1ccc(COc2ccc(Cc3cnc(N)nc3N)cc2OC)cc1 [GW632580X]												16746	34970	43497	-0.0017	-0.51	0.0341	19.0	19.0	21.7	z-scoreHeLa rep 3 (HeLa cells; PKIS compound screen): 0.47; cell death (HeLa cells; [2]): No; z-scoreMRSA+ mean (intracellular MRSA; PKIS compound screen): 0.36; z-scoreMRSA+ rep 1 (intracellular MRSA; PKIS compound screen): 0.36; z-scoreMRSA+ rep 2 (intracellular MRSA; PKIS compound screen): 0.14; z-scoreMRSA+ rep 3 (intracellular MRSA; PKIS compound screen): 0.58; hit (intracellular MRSA; [3]): No; effect (intracellular MRSA; [4]): No
CC(C)S(=O)(=O)N1CCN(Cc2ccc3c(c2)nc(NC(=O)c2ccsc2)n3C[C@H](O)c2ccccc2)CC1 [GW635815X]												31634	26865	24254	0.52	0.24	0.27	12.8	14.2	14.5	z-scoreHeLa rep 3 (HeLa cells; PKIS compound screen): 1.04; cell death (HeLa cells; [2]): No; z-scoreMRSA+ mean (intracellular MRSA; PKIS compound screen): -1.62; z-scoreMRSA+ rep 1 (intracellular MRSA; PKIS compound screen): -1.60; z-scoreMRSA+ rep 2 (intracellular MRSA; PKIS compound screen): -1.42; z-scoreMRSA+ rep 3 (intracellular MRSA; PKIS compound screen): -1.84; hit (intracellular MRSA; [3]): No; effect (intracellular MRSA; [4]): No
CCS(=O)(=O)c1ccc(OC)c(Nc2nccc(N(C)c3ccc4c(C)n[nH]c4c3)n2)c1 [GW654652C]												21654	25320	35112	-0.80	0.23	-1.77	13.7	14.6	13.9	z-scoreHeLa rep 3 (HeLa cells; PKIS compound screen): -0.86; cell death (HeLa cells; [2]): No; z-scoreMRSA+ mean (intracellular MRSA; PKIS compound screen): -1.43; z-scoreMRSA+ rep 1 (intracellular MRSA; PKIS compound screen): -1.32; z-scoreMRSA+ rep 2 (intracellular MRSA; PKIS compound screen): -1.18; z-scoreMRSA+ rep 3 (intracellular MRSA; PKIS compound screen): -1.79; hit (intracellular MRSA; [3]): No; effect (intracellular MRSA; [4]): No
CCS(=O)(=O)c1ccc(OC)c(Nc2ncc(-c3cccc(-c4ccccc4F)c3)o2)c1 [GW678313X]												18271	31542	48427	0.12	-0.28	-0.61	14.1	12.8	13.1	z-scoreHeLa rep 3 (HeLa cells; PKIS compound screen): 1.26; cell death (HeLa cells; [2]): No; z-scoreMRSA+ mean (intracellular MRSA; PKIS compound screen): -1.65; z-scoreMRSA+ rep 1 (intracellular MRSA; PKIS compound screen): -1.19; z-scoreMRSA+ rep 2 (intracellular MRSA; PKIS compound screen): -1.72; z-scoreMRSA+ rep 3 (intracellular MRSA; PKIS compound screen): -2.04; hit (intracellular MRSA; [3]): No; effect (intracellular MRSA; [4]): No
COC(=O)Nc1nc2ccc(Oc3ccc(NC(=O)Nc4cc(C(F)(F)F)ccc4F)cn3)cc2[nH]1 [GW681170A]	No	0.78	1.06	0.49	0.78	No	No	-0.20	-0.0173	-0.44	-0.15	5819	4937	6470				25.2	20.8	21.7	
Cc1n[nH]c2cc(Nc3ccnc(Nc4cccc(CN5CCOCC5)c4)n3)ccc12 [GW682569X]	No	-1.79	-2.45	-1.90	-1.03	No	No	0.19	0.71	0.50	-0.65										cell count rep 1 (HeLa cells; PKIS compounds raw data): 2071; cell count rep 2 (HeLa cells; PKIS compounds raw data): 1754; cell count rep 3 (HeLa cells; PKIS compounds raw data): 4807; %GFP+ rep 1 (intracellular MRSA; PKIS compounds raw data): 15.4%; %GFP+ rep 2 (intracellular MRSA; PKIS compounds raw data): 15.0%; %GFP+ rep 3 (intracellular MRSA; PKIS compounds raw data): 13.7%
O=C(Nc1ccc(Oc2ccc3nc(NC(=O)c4ccco4)[nH]c3c2)cc1)Nc1cc(C(F)(F)F)ccc1F [GW683134A]	No	-0.87	-0.91	-0.97	-0.74	Yes	Yes	-2.35	-2.44	-2.24	-2.36	24828	19604	15141				9.6	11.2	12.6	
COC(=O)Nc1nc2ccc(Oc3ccc(NC(=O)Nc4cc(C(F)(F)F)ccc4F)cc3)cc2n1C [GW692089A]												28483	25969	19864	0.00395	-0.29	0.12	16.9	18.4	19.6	z-scoreHeLa rep 3 (HeLa cells; PKIS compound screen): 0.18; cell death (HeLa cells; [2]): No; z-scoreMRSA+ mean (intracellular MRSA; PKIS compound screen): -0.41; z-scoreMRSA+ rep 1 (intracellular MRSA; PKIS compound screen): -0.50; z-scoreMRSA+ rep 2 (intracellular MRSA; PKIS compound screen): -0.28; z-scoreMRSA+ rep 3 (intracellular MRSA; PKIS compound screen): -0.45; hit (intracellular MRSA; [3]): No; effect (intracellular MRSA; [4]): No
Fc1cccc(COc2ccc(Nc3ncnc4cc(-c5ccc[nH]5)sc34)cc2Cl)c1 [GW693881A]	No	0.30	0.64	0.23	0.04	No	No	0.17	0.75	0.44	-0.68										cell count rep 1 (HeLa cells; PKIS compounds raw data): 5481; cell count rep 2 (HeLa cells; PKIS compounds raw data): 4577; cell count rep 3 (HeLa cells; PKIS compounds raw data): 7047; %GFP+ rep 1 (intracellular MRSA; PKIS compounds raw data): 15.5%; %GFP+ rep 2 (intracellular MRSA; PKIS compounds raw data): 14.8%; %GFP+ rep 3 (intracellular MRSA; PKIS compounds raw data): 13.6%
c1ccc(-c2n[nH]cc2Nc2ccnc3ccccc23)nc1 [GW694077X]												27159	28509	18866	0.01	-0.51	0.55	15.2	17.2	15.3	z-scoreHeLa rep 3 (HeLa cells; PKIS compound screen): -0.0113; cell death (HeLa cells; [2]): No; z-scoreMRSA+ mean (intracellular MRSA; PKIS compound screen): -1.06; z-scoreMRSA+ rep 1 (intracellular MRSA; PKIS compound screen): -0.96; z-scoreMRSA+ rep 2 (intracellular MRSA; PKIS compound screen): -0.60; z-scoreMRSA+ rep 3 (intracellular MRSA; PKIS compound screen): -1.62; hit (intracellular MRSA; [3]): No; effect (intracellular MRSA; [4]): No
COC(=O)Nc1nc2ccc(Oc3ccc(NC(=O)Nc4cc(C(F)(F)F)ccc4Cl)cc3)cc2[nH]1 [GW697465A]	No	0.00465	0.21	-0.31	0.12	No	No	-0.59	-0.44	-0.59	-0.75	4644	3894	5423				23.4	20.2	19.7	
Cc1nnc(-c2ccc(C)c(-c3ccc(C(=O)Nc4ccc(NS(C)(=O)=O)cc4)cc3)c2)o1 [GW702865X]	No	-0.34	-0.64	-0.08	-0.29	No	No	0.42	0.75	0.77	-0.26										cell count rep 1 (HeLa cells; PKIS compounds raw data): 4074; cell count rep 2 (HeLa cells; PKIS compounds raw data): 4158; cell count rep 3 (HeLa cells; PKIS compounds raw data): 6358; %GFP+ rep 1 (intracellular MRSA; PKIS compounds raw data): 15.5%; %GFP+ rep 2 (intracellular MRSA; PKIS compounds raw data): 15.8%; %GFP+ rep 3 (intracellular MRSA; PKIS compounds raw data): 15.0%
